This is an account of results in US20080004302A1, “Novel Compounds” (ASTRAZENECA AB, priority 2006, published 2008).

In experiment [1] the target is T1, FGFR1 IIIc (Homo sapiens, UniProt P11362).
T1 construct: host or cells: Cos-1
Nature of the experiment: Cell based inhibition of transiently expressed FGFR1 IIIc phosphorylation via use of ECHO technology (Cos-1 cells). The note with it: Cos-1 cells, phospho-FGFR1, ECHO dosing; upper bound of bin; read-out: IC50.

Experiment [2] addresses T1, FGFR1 IIIc. Nature of the experiment: Cell based inhibition of transiently expressed FGFR1 IIIc phosphorylation (Cos-1 cells). The note with it: Cos-1 cells, phospho-FGFR1; upper bound of bin; read-out: IC50. As for the experimental part:
This assay is designed to detect inhibitors of transiently expressed FGFR1 phosphorylation by antibody staining of fixed cells detected using ArrayScan technology.
To undertake the assay, Cos-1 cells were harvested at 90-95% confluence for cell transfection. For each 96-well plate, 24 ul Lipofectamine 2000 was added to 809 ul OptiMEM and incubated at room temperature for 5 minutes. […] Equal volumes of DNA and Lipofectamine 2000 were combined (DNA: Lipid=1:1.2 ratio) and incubated at room temperature for 20 minutes.
The harvested Cos-1 cells are counted using a coulter counter and diluted further with 1% FCS/DMEM to 2.5×10^5 cells/ml. For each 96-well, 8.33 ml cells were required. […] Media was removed from the wells using vacuum aspiration; cells were fixed by adding 50μl of 100% methanol to each well and incubated at room temperature for 20 minutes.
The plates were read on an Arrayscan (Cellomics).

The next experiment deals with FGFR1 kinase (Homo sapiens, UniProt P11362). Kind of experiment: Kinase assay (using Caliper technology). The format is biochemical. The note with it: FGFR1 kinase, Caliper; upper bound of bin; read-out: IC50. An outline of the steps:
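Human FGFR1 kinase activity measured with a 13-mer fluorescently tagged FGFR1-specific peptide substrate; compounds serially diluted in 5% (v/v) DMSO. Reactions ran 1.5 h at room temperature, stopped with EDTA-containing HEPES pH 7.5 buffer. Phosphorylated and unphosphorylated peptide separated by microfluidic mobility shift.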

Another experiment has as its target T2, human IGF1R (Homo sapiens, UniProt P08069).
T2 construct: expressed in transfected cells; host or cells: R+ cells (R- mouse fibroblasts transfected with human IGF1R)
Kind of experiment: Inhibition of insulin-like growth factor-1 receptor phosphorylation in R+ cells. The note with it: 30 nM IGF1, read-out: IGF cell class. The format is cell-based.

For a further experiment, the system named is Erk phosphorylation. Nature of the experiment: Growth factor (bFGF) stimulated Erk phosphorylation in NIH 3T3 cells. The note with it: Mus musculus.
Where [3] appears, read: NIH3T3, NIH 3T3 cells, 3 ng/ml bFGF, upper bound of bin.

Where a name gives a salt, the structure may show the parent alone.

T2 sequence (P08069 31-1367): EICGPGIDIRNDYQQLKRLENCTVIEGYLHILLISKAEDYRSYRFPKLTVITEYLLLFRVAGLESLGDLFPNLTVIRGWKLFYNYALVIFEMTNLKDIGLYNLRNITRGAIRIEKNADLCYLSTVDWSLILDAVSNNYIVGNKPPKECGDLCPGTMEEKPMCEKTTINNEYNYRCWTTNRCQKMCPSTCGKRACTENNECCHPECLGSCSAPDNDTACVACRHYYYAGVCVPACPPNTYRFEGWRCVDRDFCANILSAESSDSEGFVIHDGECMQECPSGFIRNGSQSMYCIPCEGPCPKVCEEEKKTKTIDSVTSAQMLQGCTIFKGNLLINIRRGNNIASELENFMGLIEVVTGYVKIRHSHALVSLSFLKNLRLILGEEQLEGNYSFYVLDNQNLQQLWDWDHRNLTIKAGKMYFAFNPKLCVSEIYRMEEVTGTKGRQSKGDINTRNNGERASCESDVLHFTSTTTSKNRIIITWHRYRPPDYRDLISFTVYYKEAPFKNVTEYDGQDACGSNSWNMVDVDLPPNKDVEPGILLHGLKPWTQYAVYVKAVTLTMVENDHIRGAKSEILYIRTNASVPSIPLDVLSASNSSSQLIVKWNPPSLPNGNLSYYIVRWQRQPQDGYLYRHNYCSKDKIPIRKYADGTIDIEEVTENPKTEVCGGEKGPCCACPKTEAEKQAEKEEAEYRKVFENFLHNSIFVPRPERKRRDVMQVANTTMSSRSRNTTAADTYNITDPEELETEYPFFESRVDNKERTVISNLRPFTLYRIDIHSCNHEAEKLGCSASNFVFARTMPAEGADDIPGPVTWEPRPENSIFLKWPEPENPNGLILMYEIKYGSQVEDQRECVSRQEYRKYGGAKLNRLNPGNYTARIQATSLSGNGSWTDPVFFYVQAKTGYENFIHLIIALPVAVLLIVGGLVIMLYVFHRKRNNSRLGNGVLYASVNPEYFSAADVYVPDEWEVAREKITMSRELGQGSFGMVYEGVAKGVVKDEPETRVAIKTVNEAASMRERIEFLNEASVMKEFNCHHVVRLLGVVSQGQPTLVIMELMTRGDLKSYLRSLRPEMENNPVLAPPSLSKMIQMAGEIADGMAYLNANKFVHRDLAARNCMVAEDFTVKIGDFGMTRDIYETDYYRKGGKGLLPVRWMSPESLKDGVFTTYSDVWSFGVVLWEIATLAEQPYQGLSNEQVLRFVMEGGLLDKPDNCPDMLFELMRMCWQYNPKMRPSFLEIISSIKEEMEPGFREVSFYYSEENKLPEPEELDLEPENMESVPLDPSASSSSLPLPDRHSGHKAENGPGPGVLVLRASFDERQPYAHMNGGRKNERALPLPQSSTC
Sequence of FGFR1 kinase (P11362 22-822): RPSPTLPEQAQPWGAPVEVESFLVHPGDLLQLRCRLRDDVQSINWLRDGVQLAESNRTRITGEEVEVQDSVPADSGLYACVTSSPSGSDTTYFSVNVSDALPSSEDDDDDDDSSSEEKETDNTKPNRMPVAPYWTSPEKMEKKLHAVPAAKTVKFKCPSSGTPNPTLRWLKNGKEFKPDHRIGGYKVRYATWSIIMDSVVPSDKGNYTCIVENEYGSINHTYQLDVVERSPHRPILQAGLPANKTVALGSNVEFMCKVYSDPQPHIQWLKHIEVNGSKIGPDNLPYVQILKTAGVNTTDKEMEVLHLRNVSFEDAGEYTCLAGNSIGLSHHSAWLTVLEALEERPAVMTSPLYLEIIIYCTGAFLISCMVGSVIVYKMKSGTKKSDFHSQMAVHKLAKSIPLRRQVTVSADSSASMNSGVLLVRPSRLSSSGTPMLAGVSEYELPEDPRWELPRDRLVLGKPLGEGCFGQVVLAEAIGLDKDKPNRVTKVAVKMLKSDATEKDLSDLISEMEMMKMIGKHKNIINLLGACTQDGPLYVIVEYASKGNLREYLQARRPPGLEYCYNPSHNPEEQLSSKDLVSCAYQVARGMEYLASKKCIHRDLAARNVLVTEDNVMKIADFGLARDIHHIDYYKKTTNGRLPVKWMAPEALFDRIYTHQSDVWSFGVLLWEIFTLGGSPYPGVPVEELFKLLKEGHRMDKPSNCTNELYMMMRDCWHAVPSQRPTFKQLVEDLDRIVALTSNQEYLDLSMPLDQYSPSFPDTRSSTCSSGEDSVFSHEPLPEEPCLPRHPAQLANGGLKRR
T1 sequence (P11362 22-822): as above

With `CNC(=O)c1cc(CNc2nccc(Nc3cc(CCc4cccc(OC)c4)n[nH]3)n2)on1` [Example 64, 5-[[[4-[[5-[2-(3-methoxyphenyl)ethyl]-2H-pyrazol-3-yl]amino]pyrimidin-2-yl]amino]methyl]-N-methyl-1,2-oxazole-3-carboxamide], the IC50 was under 10 µM at FGFR1 IIIc [1], under 10 µM at FGFR1 IIIc [2] and under 1 µM on FGFR1 kinase.
With `CC(C)Cc1cc(Nc2ccnc(NCc3cc(C4CC4)no3)n2)n[nH]1` [Example 16, N-[(3-cyclopropyl-1,2-oxazol-5-yl)methyl]-N′-[5-(2-methylpropyl)-2H-pyrazol-3-yl]pyrimidine-2,4-diamine], the IC50 on FGFR1 IIIc [1] was under 0.2 µM; at FGFR1 IIIc [2], under 1 µM; at FGFR1 kinase, under 0.2 µM.
On to `Cc1cc(CNc2nccc(Nc3cc(CCc4cccc(C(=O)N(C)C)c4)[nH]n3)n2)on1` [Example 59, N,N-dimethyl-3-[2-[5-[[2-[(3-methyl-1,2-oxazol-5-yl)methylamino]pyrimidin-4-yl]amino]-2H-pyrazol-3-yl]ethyl]benzamide], for which the IC50 on FGFR1 IIIc [1] was under 30 µM; on FGFR1 IIIc [2], under 30 µM; at FGFR1 kinase, under 1 µM.
As for `c1coc(-c2cc(Nc3ccnc(NCc4cc(C5CC5)no4)n3)n[nH]2)c1` [Example 120, N-[(3-cyclopropyl-1,2-oxazol-5-yl)methyl]-N′-[5-(2-furyl)-2H-pyrazol-3-yl]pyrimidine-2,4-diamine], the IC50 at FGFR1 IIIc [1] is under 0.2 µM; at FGFR1 IIIc [2], under 1 µM; at human IGF1R, 1 to 10 µM; on FGFR1 kinase, under 0.2 µM.
As to `CC(C)Oc1cc(Nc2ccnc(NCc3cc(C4CCC4)no3)n2)n[nH]1` [Example 102, N-[(3-cyclobutyl-1,2-oxazol-5-yl)methyl]-N′-(5-propan-2-yloxy-1H-pyrazol-3-yl)pyrimidine-2,4-diamine], the IC50 on FGFR1 IIIc [1] was under 0.2 µM; at FGFR1 IIIc [2] it was under 0.2 µM; at human IGF1R, 0.1 to 1 µM; on FGFR1 kinase, under 0.2 µM.
As for `COc1cccc(CCc2cc(Nc3ccnc(NCc4cc(CO)no4)n3)[nH]n2)c1` [Example 61, [5-[[[4-[[5-[2-(3-methoxyphenyl)ethyl]-2H-pyrazol-3-yl]amino]pyrimidin-2-yl]amino]methyl]-1,2-oxazol-3-yl]methanol], the results for the IC50 at FGFR1 IIIc [2], at human IGF1R and at FGFR1 kinase were under 1 µM, over 10 µM and under 0.2 µM, respectively.
With `Cc1cc(CNc2nccc(Nc3cc(CCc4cccc(CN)c4)[nH]n3)n2)on1` [Example 58, N′-[5-[2-[3-(aminomethyl)phenyl]ethyl]-1H-pyrazol-3-yl]-N-[(3-methyl-1,2-oxazol-5-yl)methyl]pyrimidine-2,4-diamine], the IC50 on FGFR1 IIIc [1] is under 30 µM; on FGFR1 IIIc [2], under 30 µM; on FGFR1 kinase, under 1 µM.
Regarding `COc1ncc(CCc2cc(Nc3ccnc(NCc4cc(C)no4)n3)n[nH]2)c(OC)n1` [Example 60, N′-[5-[2-(2,4-dimethoxypyrimidin-5-yl)ethyl]-1H-pyrazol-3-yl]-N-[(3-methyl-1,2-oxazol-5-yl)methyl]pyrimidine-2,4-diamine], the IC50 on FGFR1 IIIc [2] is under 30 µM; on human IGF1R, over 10 µM; on FGFR1 kinase, under 1 µM.
With `Cc1cc(CNc2nccc(Nc3cc(CCc4ccncc4)[nH]n3)n2)on1` [Example 116, N-[(3-methyl-1,2-oxazol-5-yl)methyl]-N′-[5-(2-pyridin-4-ylethyl)-2H-pyrazol-3-yl]pyrimidine-2,4-diamine], the IC50 is under 30 µM at FGFR1 IIIc [2], over 10 µM at human IGF1R and under 10 µM on FGFR1 kinase.
On to `Cc1cc(CNc2nccc(Nc3cc(CCc4cc(F)cc(Cl)c4)[nH]n3)n2)on1` [Example 57, N′-[5-[2-(3-chloro-5-fluoro-phenyl)ethyl]-2H-pyrazol-3-yl]-N-[(3-methyl-1,2-oxazol-5-yl)methyl]pyrimidine-2,4-diamine], for which the IC50 at FGFR1 IIIc [1] is under 1 µM; at FGFR1 IIIc [2], under 0.2 µM; on FGFR1 kinase, under 1 µM.
Consider `CN(C)Cc1cc(CNc2nccc(Nc3cc(CCc4cccc(O)c4)n[nH]3)n2)on1` [Example 63, 3-[2-[5-[[2-[[3-(dimethylaminomethyl)-1,2-oxazol-5-yl]methylamino]pyrimidin-4-yl]amino]-1H-pyrazol-3-yl]ethyl]phenol], for which the figures for the IC50 on FGFR1 IIIc [1], at FGFR1 IIIc [2] and on FGFR1 kinase were under 10 µM, under 10 µM and under 0.2 µM, respectively.
As to `Cc1cc(CNc2nccc(Nc3cc(C4CCCC4)[nH]n3)n2)on1` [Example 13, N′-(5-cyclopentyl-2H-pyrazol-3-yl)-N-[(3-methyl-1,2-oxazol-5-yl)methyl]pyrimidine-2,4-diamine], the IC50 was under 1 µM at FGFR1 IIIc [1] and under 0.2 µM at FGFR1 IIIc [2].
`CNC(=O)c1cc(CNc2nccc(Nc3cc(CCc4cccc(O)c4)n[nH]3)n2)on1` [Example 65, 5-[[[4-[[5-[2-(3-hydroxyphenyl)ethyl]-2H-pyrazol-3-yl]amino]pyrimidin-2-yl]amino]methyl]-N-methyl-1,2-oxazole-3-carboxamide]: the IC50 on FGFR1 IIIc [1] was under 10 µM; at FGFR1 IIIc [2], under 10 µM; at human IGF1R, 1 to 10 µM; on FGFR1 kinase it was under 0.2 µM.
With `Cc1cc(CNc2nccc(Nc3cc(CCc4ccc(CN(C)C)o4)[nH]n3)n2)on1` [Example 121, N′-[5-[2-[5-(dimethylaminomethyl)-2-furyl]ethyl]-1H-pyrazol-3-yl]-N-[(3-methyl-1,2-oxazol-5-yl)methyl]pyrimidine-2,4-diamine], the IC50 on FGFR1 IIIc [2] is under 30 µM; at FGFR1 kinase, under 1 µM.
On to `Cc1cc(CNc2nccc(Nc3cc(OCc4ccoc4)[nH]n3)n2)on1` [Example 108, N′-[5-(3-furylmethoxy)-1H-pyrazol-3-yl]-N-[(3-methyl1,2-oxazol-5-yl)methyl]pyrimidine-2,4-diamine], for which the results for the IC50 in the experiment with Erk phosphorylation (setting [3]), on FGFR1 IIIc [2] and on FGFR1 kinase were under 1 µM, under 10 µM and under 0.2 µM, respectively.
For the compound `Oc1cccc(CCc2cc(Nc3ccnc(NCc4cc(C5CC5)no4)n3)n[nH]2)c1` [Example 56, 3-[2-[5-[[2-[(3-cyclopropyl-1,2-oxazol-5-yl)methylamino]pyrimidin-4-yl]amino]-1H-pyrazol-3-yl]ethyl]phenol], the IC50 on FGFR1 IIIc [1] is under 0.2 µM; at FGFR1 IIIc [2] it was under 0.2 µM; at human IGF1R, 1 to 10 µM; at FGFR1 kinase, under 0.2 µM.
Turning to `COc1ccc(CCc2cc(Nc3ccnc(NCc4cc(C)no4)n3)n[nH]2)cc1OC` [Example 46, N′-[5-[2-(3,4-dimethoxyphenyl)ethyl]-1H-pyrazol-3-yl]-N-[(3-methyl1,2-oxazol-5-yl)methyl]pyrimidine-2,4-diamine hydrochloride], the IC50 in the experiment on Erk phosphorylation (NIH3T3) is under 10 µM; on FGFR1 IIIc [2], under 10 µM; on human IGF1R, 1 to 10 µM.
Turning to `CC(C)Oc1cc(Nc2ccnc(NCc3cc(C(N)=O)no3)n2)[nH]n1` [Example 78, 5-[[[4-[(5-propan-2-yloxy-2H-pyrazol-3-yl)amino]pyrimidin-2-yl]amino]methyl]-1,2-oxazole-3-carboxamide], the IC50 is under 1 µM with Erk phosphorylation (setting [3]), under 10 µM on FGFR1 IIIc [2] and under 0.2 µM at FGFR1 kinase.
Regarding `c1ccc(COc2cc(Nc3ccnc(NCc4cc(C5CC5)no4)n3)n[nH]2)cc1` [Example 103, N-[(3-cyclopropyl-1,2-oxazol-5-yl)methyl]-N′-(5-phenylmethoxy-2H-pyrazol-3-yl)pyrimidine-2,4-diamine], the IC50 on FGFR1 IIIc [1] was under 0.2 µM; at FGFR1 IIIc [2] it was under 0.2 µM; at human IGF1R it was 1 to 10 µM; on FGFR1 kinase, under 0.2 µM.
Turning to `COc1cc(CCc2cc(Nc3ccnc(NCc4cc(C)no4)n3)n[nH]2)c(F)cn1` [Example 62, N′-[5-[2-(5-fluoro-2-methoxy-pyridin-4-yl)ethyl]-1H-pyrazol-3-yl]-N-[(3-methyl-1,2-oxazol-5-yl)methyl]pyrimidine-2,4-diamine hydrochloride], the IC50 is under 1 µM at FGFR1 IIIc [1], under 1 µM on FGFR1 IIIc [2], over 10 µM on human IGF1R and under 1 µM at FGFR1 kinase.
Regarding `Cc1cc(CNc2nccc(Nc3cc(CCc4cn(C)cn4)[nH]n3)n2)on1` [Example 119, N′-[5-[2-(1-methylimidazol-4-yl)ethyl]-1H-pyrazol-3-yl]-N-[(3-methyl-1,2-oxazol-5-yl)methyl]pyrimidine-2,4-diamine], the IC50 was under 30 µM on FGFR1 IIIc [2] and under 10 µM at FGFR1 kinase.
For the compound `c1cc(Nc2cc(C3CCCC3)[nH]n2)nc(NCc2cc(C3CC3)no2)n1` [Example 14, N′-(5-cyclopentyl-2H-pyrazol-3-yl)-N-[(3-cyclopropyl-1,2-oxazol-5-yl)methyl]pyrimidine-2,4-diamine], the IC50 at FGFR1 IIIc [1], at FGFR1 IIIc [2] and at FGFR1 kinase was under 0.2 µM each time.
